{
  "source": "ChEMBL document CHEMBL1131353",
  "about": "“Structurally similar small molecule photoaffinity CCK-A agonists and antagonists as novel tools for directly probing 7TM receptors-ligand interactions” (Bioorg Med Chem Lett, 1998)",
  "key": {"[1]": {"molecular_target": "T1, Cholecystokinin receptor type A (Rattus norvegicus, UniProt P30551)", "T1 sequence (P30551 whole entry)": "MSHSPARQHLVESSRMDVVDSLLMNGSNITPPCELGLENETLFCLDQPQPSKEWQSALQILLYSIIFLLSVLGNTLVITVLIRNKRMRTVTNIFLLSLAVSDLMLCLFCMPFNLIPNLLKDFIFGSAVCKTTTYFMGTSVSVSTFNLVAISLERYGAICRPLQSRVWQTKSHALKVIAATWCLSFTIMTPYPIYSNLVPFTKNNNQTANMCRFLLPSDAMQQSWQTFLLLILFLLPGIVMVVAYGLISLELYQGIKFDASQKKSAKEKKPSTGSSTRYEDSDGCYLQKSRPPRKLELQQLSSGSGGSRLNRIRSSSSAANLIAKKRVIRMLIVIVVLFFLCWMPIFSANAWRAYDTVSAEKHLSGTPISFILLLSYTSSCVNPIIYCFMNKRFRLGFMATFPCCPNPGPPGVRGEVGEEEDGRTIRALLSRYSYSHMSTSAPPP", "experiment": "Displacement of 125I]-D-Tyr-Gly-[(Nle28,31)CCK-26-33] from rat cell membrane Cholecystokinin type A receptor; call rule not given here"}, "Rattus norvegicus [2]": {"organism": "Rattus norvegicus", "experiment": "Compound was tested in vitro for its ability to stimulate dispersed rat pancreatic acini to secrete amylase into the medium using CCK-8 as an agonist control; no activity detected at maximum concentration", "type": "functional"}, "[3]": {"molecular_target": "T2, Cholecystokinin receptor type A (Rattus norvegicus) (UniProt P30551)", "T2 sequence (whole entry)": "T1 sequence (P30551 whole entry)", "experiment": "In vitro efficacy was measured in rat Cholecystokinin type A receptor at 1.0 uM"}, "Rattus norvegicus [4]": {"organism": "Rattus norvegicus", "experiment": "Compound was tested in vitro for its ability to stimulate dispersed rat pancreatic acini to secrete amylase into the medium using CCK-8 as an agonist control", "type": "functional"}},
  "data": [
    {"smiles": "COc1ccc(N(C)C(=O)CN2C(=O)C(NC(=O)Nc3cccc(C4(C(F)(F)F)N=N4)c3)C(=O)N(c3ccccc3)c3ccccc32)cc1", "note": "(centres undefined)", "values": [
      {"measurement": "IC50", "setting": "[1]", "result": 410, "unit": "nM"},
      {"measurement": "EC50", "setting": "Rattus norvegicus [2]", "result": "Not Active"}
    ]},
    {"smiles": "COc1ccc(N(C)C(=O)CN2C(=O)C(NC(=O)Nc3cccc(C(=O)c4ccccc4)c3)C(=O)N(c3ccccc3)c3ccccc32)cc1", "note": "(centres undefined)", "values": [
      {"measurement": "IC50", "setting": "[1]", "result": 350, "unit": "nM"},
      {"measurement": "EC50", "setting": "Rattus norvegicus [2]", "result": "Not Active"}
    ]},
    {"smiles": "CC(C)N(C(=O)CN1C(=O)C(NC(=O)Nc2cccc(C(=O)c3ccccc3)c2)C(=O)N(c2ccccc2)c2ccccc21)c1ccccc1", "note": "(centres undefined)", "values": [
      {"measurement": "IC50", "setting": "[1]", "result": 160, "unit": "nM"},
      {"measurement": "Efficacy", "setting": "[3]", "result": 64, "unit": "%"},
      {"measurement": "EC50", "setting": "Rattus norvegicus [4]", "result": 730, "unit": "nM"}
    ]},
    {"smiles": "COc1ccc(N(C(=O)CN2C(=O)C(NC(=O)Nc3ccccc3)C(=O)N(c3ccccc3)c3ccccc32)C(C)C)cc1", "note": "(centres undefined)", "values": [
      {"measurement": "IC50", "setting": "[1]", "result": 50, "unit": "nM"}
    ]},
    {"smiles": "CSCC[C@H](NC(=O)[C@H](Cc1ccc(OS(=O)(=O)O)cc1)NC(=O)[C@@H](N)CC(=O)O)C(=O)NCC(=O)N[C@@H](Cc1c[nH]c2ccccc12)C(=O)N[C@@H](CCSC)C(=O)N[C@@H](CC(=O)O)C(=O)N[C@@H](Cc1ccccc1)C(N)=O", "note": "[SINCALIDE]", "values": [
      {"measurement": "EC50", "setting": "Rattus norvegicus [4]", "result": 0.014, "unit": "nM"}
    ]},
    {"smiles": "CN(C(=O)CN1C(=O)C(NC(=O)Nc2cccc(C3(C(F)(F)F)N=N3)c2)C(=O)N(c2ccccc2)c2ccccc21)c1ccccc1", "note": "(centres undefined)", "values": [
      {"measurement": "IC50", "setting": "[1]", "result": 310, "unit": "nM"},
      {"measurement": "EC50", "setting": "Rattus norvegicus [2]", "result": "Not Active"}
    ]},
    {"smiles": "CC(C)N(C(=O)CN1C(=O)C(NC(=O)Nc2ccccc2)C(=O)N(c2ccccc2)c2ccccc21)c1ccccc1", "note": "(centres undefined)", "values": [
      {"measurement": "Efficacy", "setting": "[3]", "result": 83, "unit": "%"},
      {"measurement": "EC50", "setting": "Rattus norvegicus [4]", "result": 40, "unit": "nM"}
    ]},
    {"smiles": "COc1ccc(N(C(=O)CN2C(=O)C(NC(=O)Nc3cccc(C(=O)c4ccccc4)c3)C(=O)N(c3ccccc3)c3ccccc32)C(C)C)cc1", "note": "(centres undefined)", "values": [
      {"measurement": "IC50", "setting": "[1]", "result": 80, "unit": "nM"},
      {"measurement": "Efficacy", "setting": "[3]", "result": 68, "unit": "%"},
      {"measurement": "EC50", "setting": "Rattus norvegicus [4]", "result": 460, "unit": "nM"}
    ]},
    {"smiles": "COc1ccc(N(C(=O)CN2C(=O)C(NC(=O)Nc3cccc(C4(C(F)(F)F)N=N4)c3)C(=O)N(c3ccccc3)c3ccccc32)C(C)C)cc1", "note": "(centres undefined)", "values": [
      {"measurement": "IC50", "setting": "[1]", "result": 440, "unit": "nM"},
      {"measurement": "Efficacy", "setting": "[3]", "result": 75, "unit": "%"},
      {"measurement": "EC50", "setting": "Rattus norvegicus [4]", "result": 600, "unit": "nM"}
    ]},
    {"smiles": "CC(C)N(C(=O)CN1C(=O)C(NC(=O)Nc2cccc(C3(C(F)(F)F)N=N3)c2)C(=O)N(c2ccccc2)c2ccccc21)c1ccccc1", "note": "(centres undefined)", "values": [
      {"measurement": "IC50", "setting": "[1]", "result": 1300, "unit": "nM"},
      {"measurement": "Efficacy", "setting": "[3]", "result": 47, "unit": "%"},
      {"measurement": "EC50", "setting": "Rattus norvegicus [4]", "result": 930, "unit": "nM"}
    ]},
    {"smiles": "COc1ccc(N(C)C(=O)CN2C(=O)C(NC(=O)Nc3ccccc3)C(=O)N(c3ccccc3)c3ccccc32)cc1", "note": "(centres undefined)", "values": [
      {"measurement": "IC50", "setting": "[1]", "result": 390, "unit": "nM"}
    ]},
    {"smiles": "CN(C(=O)CN1C(=O)C(NC(=O)Nc2cccc(C(=O)c3ccccc3)c2)C(=O)N(c2ccccc2)c2ccccc21)c1ccccc1", "note": "(centres undefined)", "values": [
      {"measurement": "IC50", "setting": "[1]", "result": 290, "unit": "nM"}
    ]}
  ]
}
